From US8012944B2, “Method for treating cancer using IAP antisense oligomer and chemotherapeutic agent” (Pharmascience Inc., priority 2003, dated 2011)

Experiments:
pro-caspase-3, PARP = assay: Pro-caspase-3 and PARP protein in H460 cells (western blot); type: cell-based, human; details: 1.2 μM
Description: One day prior to transfection, H460 cells were plated in 6- or 96-well tissue culture plates. Phosphorothioate antisense oligonucleotides were delivered into cells with Lipofectamine 2000 (Life Technologies) in the form of liposome-oligonucleotide complexes. Following a 4.5 or 6 h transfection, the transfection medium was replaced with RPMI medium containing 10% FBS, and the cells incubated for another 24 or 48 h.
The cells or tumor tissue samples were lysed with ice-cold lysis buffer (50 mM Tris, 150 mM NaCl, 2.5 mM EDTA, 0.1% SDS, 0.5% sodium deoxycholate, 1% NP-40, 0.02% sodium azide) containing protease inhibitors (Complete-Mini protease inhibitor tablets; Boehringer Mannheim GmBH, Mannheim, Germany). After incubation for 30 min on ice, samples were centrifuged at 10,000 rpm for 15 min, and stored at −20° C. Protein content in the lysed extracts was determined using a detergent-compatible Bio-Rad assay (Bio-Rad Labs, Hercules, Calif.). Equal amounts of protein (40 μg/lane) were separated on 12% SDS-polyacrylamide gels or 4-15% gradient SDS-polyacrylamide pre-made gels (Bio-Rad) and transferred to nitrocellulose membranes. Primary antibodies against XIAP, Bcl-2 (DAKO, Glostrup, Denmark), Bax (Sigma, St. Louis, Mo.), β-actin (Sigma), caspase-3 (BD PharMingen, San Diego, Calif.), and PARP (BD PharMingen) were used. The secondary antibody was the appropriate horseradish-conjugated anti-mouse or anti-rabbit IgG (Promega, Madison, Wis.). Proteins were detected by enhanced chemiluminescence (ECL; Amersham Pharmacia Biotech, Buckinghamshire, England) and visualized after exposure to Kodak autoradiography film. Scanning densitometry (Molecular Dynamics, Sunnyvale, Calif.) was performed to quantify band intensities by volume/area integration. The amount of XIAP, caspase-3, Bcl-2 and Bax in cells was normalized to their respective lane β-actin levels, upon stripping and reprobing.

[1] = tested on: subcutaneous H460 human non-small-cell lung tumor xenografts; assay: Systemic (i.p.) oligonucleotides with or without vinorelbine in H460 xenografts; type: in vivo, SCID-RAG2 mice; details: for mean tumor size: day 24, control 0.75
Description: Initial systemic PS-oligonucleotide studies were designed without any chemotherapeutic agents. SCID-RAG2 mice were inoculated with H460 human lung carcinoma cells (s.c. shoulder injection of 10^6 cells) and treatments with G4 and F3 AS PS-oligonucleotides, as well as a scrambled control, were initiated three days after tumor inoculation. Nucleobase oligomer injections were administered i.p. at 12.5 mg/kg three times a week for three weeks. At the end of the treatment period, mean tumor sizes in the groups treated with either G4 or F3 AS oligonucleotides were ˜50% smaller than in the group treated with a scrambled control oligonucleotides (FIG. 15). The same treatment protocol was tested on female SCID-RAG2 mice inoculated orthotopically with MDA-MB-435/LCC6 human breast carcinoma cells. Two weeks after the last treatment (day 35) tumor volumes of mice treated with F3, C5 or G4 AS oligonucleotides were 70%, 60%, and 45%, respectively, smaller than vehicle controls (FIG. 16).
We conducted additional examination of the antitumor effects of G4 AS oligonucleotides in SCID-RAG2 mice bearing xenografts of H460 human non-small-cell lung tumors implanted subcutaneously. Saline-treated control tumors grew reproducibly to a size of 0.75 cm^3 within approximately 24 days (FIG. 17). Oligonucleotide treatments were initiated three days after tumor cell inoculation. G4 AS oligonucleotides (5 to 15 mg/kg) were administered using a treatment schedule of i.p. injections given once a day on days 3-7, 10-14, and 17-21. The treatment with 5 or 15 mg/kg G4 AS oligonucleotides greatly delayed tumor growth: on day 24 mean tumor sizes were 0.75, 0.45 and 0.29 cm^3 in control, 5 and 15 mg/kg treated groups, respectively (FIG. 18A). There was a dose-dependent inhibition of tumor growth. […] A dose of 15 mg/kg was selected for the future combination treatment regimens with anticancer drugs.
The human non-small cell lung cancer cell line (large cell type) NCI-H460 (H460) was obtained from ATCC and maintained in RPMI 1640 supplemented with 10% FCS at 37° C. in a humidified atmosphere containing 5% CO2. Cells were used in exponential growth phase, up to a maximum of 25 in vitro passages. Male SCID-RAG2 mice (7-9 weeks old, 23-26 g) were obtained from British Columbia Cancer Agency Joint Animal Facility breeding colony and kept in aseptic environments. A tumor model of NCI-H460 cells in SCID-RAG2 mice was established by subcutaneous implantation of 1×10^6 NCI-H460 cells on the back of mice.
Efficacy experiments were conducted in male RAG2 immunodeficient mice bearing NCI-H460 tumours or female RAG2 mice bearing LCC6 tumors. Treatments were commenced on day 3 after tumor inoculation. Saline (controls), G4 AS oligonucleotides (5 or 15 mg/kg), or G4 SC oligonucleotides (5 or 15 mg/kg) were administered i.p. daily for five doses a week over a three week regimen. Vinorelbine (VNB, 5 or 10 mg/kg) was administered i.v. via the tail vein, either alone or in combination with oligonucleotides, at day 3, 7, 11 and 17 after tumor inoculation. When oligonucleotides were administered in combination with VNB, the drug treatment was performed four hours after ODN treatment.
Mice were observed daily. Body weight measurements and signs of stress (e.g., lethargy, ruffled coat, ataxia) were used to detect possible toxicities. Animals with ulcerated tumor, or tumor volumes of 1 cm^3 or greater were killed. Digital caliper measurements of tumors were converted into mean tumor size (cm^3) using the formula: ½[length (cm)]×[width (cm)]^2. An average tumor size per mouse was used to calculate the group mean tumor size±SE (n=6 mice) from at least two independent experiments per group.

## GCTGAGTCTCCATATTGCC [G4 AS] (chemistry not given here)
pro-caspase-3, PARP
  reduction of pro-caspase-3 protein levels compared to untreated control: 60%
[1]; 15 mg/kg i.p.
  tumor size as % of control mean tumor size: 39%
  mean tumor size: 0.29 cm^3
[1]; PS-oligonucleotides 12.5 mg/kg i.p. three times a week for three weeks, end of treatment
  mean tumor size smaller than scrambled control group: ~50%
[1]; 5 mg/kg i.p.
  mean tumor size: 0.45 cm^3
[1]; systemic, oligonucleotide 15 mg/kg i.p., VNB 5 or 10 mg/kg i.v.
  antitumor efficacy on H460 xenografts (in words): significant sequence-specific growth inhibitory effects
